Data set [1] in a line: The drug is tested on Z-029 corresponding to rat gut metagenome with ENA study accession number: PRJEB37062 and ENA sample accession number: ERS12561828 for biotransformation under anaerobic condition. The drug concentrations were measured over 9 timepoints collected between 0 and 24 hours of incubation by liquid-chromatography-coupled mass spectrometry (LC–MS). To be noted: 2 µM.

The nature of data set [2]: The drug is tested on Z-022 corresponding to mouse gut metagenome with ENA study accession number: PRJEB37062 and ENA sample accession number: ERS12561821 for biotransformation under anaerobic condition. The drug concentrations were measured over 9 timepoints collected between 0 and 24 hours of incubation by liquid-chromatography-coupled mass spectrometry (LC–MS). The conditions noted are these: 2 µM.

The nature of data set [3]: The drug is tested on Z-018 corresponding to pig gut metagenome with ENA study accession number: PRJEB37062 and ENA sample accession number: ERS12561817 for biotransformation under anaerobic condition. The drug concentrations were measured over 9 timepoints collected between 0 and 24 hours of incubation by liquid-chromatography-coupled mass spectrometry (LC–MS). The conditions noted are these: 2 µM.

A short description of data set [4]: The drug is tested on Z-014 corresponding to rat gut metagenome with ENA study accession number: PRJEB37062 and ENA sample accession number: ERS12561814 for biotransformation under anaerobic condition. The drug concentrations were measured over 9 timepoints collected between 0 and 24 hours of incubation by liquid-chromatography-coupled mass spectrometry (LC–MS). To be noted: 2 µM.

A short description of data set [5]: The drug is tested on Z-010 corresponding to metagenome with ENA study accession number: PRJEB37062 and ENA sample accession number: ERS12561810 for biotransformation under anaerobic condition. The drug concentrations were measured over 9 timepoints collected between 0 and 24 hours of incubation by liquid-chromatography-coupled mass spectrometry (LC–MS). To be noted: 2 µM.

Data set [6] can be described thus: The drug is tested on WLS-350 corresponding to human gut metagenome with ENA study accession number: PRJEB37062 and ENA sample accession number: ERS12561789 for biotransformation under anaerobic condition. The drug concentrations were measured over 9 timepoints collected between 0 and 24 hours of incubation by liquid-chromatography-coupled mass spectrometry (LC–MS). To be noted: 2 µM.

A short description of data set [7]: The drug is tested on WLS-090 corresponding to human gut metagenome with ENA study accession number: PRJEB37062 and ENA sample accession number: ERS12561753 for biotransformation under anaerobic condition. The drug concentrations were measured over 9 timepoints collected between 0 and 24 hours of incubation by liquid-chromatography-coupled mass spectrometry (LC–MS). To be noted: 2 µM.

Data set [8] is described as follows: The drug is tested on WLS-039 corresponding to human gut metagenome with ENA study accession number: PRJEB37062 and ENA sample accession number: ERS12561746 for biotransformation under anaerobic condition. The drug concentrations were measured over 9 timepoints collected between 0 and 24 hours of incubation by liquid-chromatography-coupled mass spectrometry (LC–MS). To be noted: 2 µM.

Data set [9] is described as follows: The drug is tested on WLS-038 corresponding to human gut metagenome with ENA study accession number: PRJEB37062 and ENA sample accession number: ERS12561745 for biotransformation under anaerobic condition. The drug concentrations were measured over 9 timepoints collected between 0 and 24 hours of incubation by liquid-chromatography-coupled mass spectrometry (LC–MS). To be noted: 2 µM.

Data set [10] is described as follows: The drug is tested on WLS-027 corresponding to human gut metagenome with ENA study accession number: PRJEB37062 and ENA sample accession number: ERS12561744 for biotransformation under anaerobic condition. The drug concentrations were measured over 9 timepoints collected between 0 and 24 hours of incubation by liquid-chromatography-coupled mass spectrometry (LC–MS). The conditions noted are these: 2 µM.

Data set [11] is described as follows: The drug is tested on WLS-010 corresponding to human gut metagenome with ENA study accession number: PRJEB37062 and ENA sample accession number: ERS12561743 for biotransformation under anaerobic condition. The drug concentrations were measured over 9 timepoints collected between 0 and 24 hours of incubation by liquid-chromatography-coupled mass spectrometry (LC–MS). The conditions noted are these: 2 µM.

The conditions of data set [12]: human gut metagenome, 24 h, 2 µM.
For data set [13] the following is noted: human gut metagenome, 24 h, 2 µM. This is another data set of the same source.
For data set [14] the following is noted: human gut metagenome, 24 h, 2 µM. This is another data set of the same source.
The conditions of data set [15]: human gut metagenome, 24 h, 2 µM. This is another data set of the same source.
For data set [16] the following is noted: human gut metagenome, 24 h, 2 µM. This is another data set of the same source.
The conditions of data set [17]: human gut metagenome, 24 h, 2 µM. The source holds these as a separate data set.
The conditions of data set [18]: human gut metagenome, 24 h, 2 µM. This is another data set of the same source.
For data set [19] the following is noted: human gut metagenome, 24 h, 2 µM. The source holds these as a separate data set.
The conditions of data set [20]: human gut metagenome, 24 h, 2 µM. The source holds these as a separate data set.
Also: call rule not given here.

As for `CCN(CC)CCOC(=O)C(Cc1cccc2ccccc12)CC1CCCO1.O=C(O)C(=O)O` (stereo not given) [NAFRONYL OXALATE], the “Bacterial Biotransformation” value in data set [1] is “Compound NOT metabolized”; in data set [2] it was “Compound metabolized”; in data set [3], “Compound metabolized”; in data set [4], “Compound NOT metabolized”; in data set [5] it was “Compound metabolized”; in data set [6], “Compound metabolized”. The “Bacterial Biotransformation” value in data set [7], in [8], in [9], in data set [10], in [11] and in data set [12] was “Compound metabolized” in each case. Besides, the “Bacterial Biotransformation” value is given as “Compound metabolized” in data set [13]; “Compound metabolized” in [14]; “Compound metabolized” in data set [15]; “Compound NOT metabolized” in data set [16]; “Compound metabolized” in [17]; “Compound metabolized” in [18]. For the same molecule, the “Bacterial Biotransformation” value in [19] and in [20] was “Compound metabolized” throughout.

For `CCc1nn(CCCN2CCN(c3cccc(Cl)c3)CC2)c(=O)n1CCOc1ccccc1` [NEFAZODONE], the “Bacterial Biotransformation” value in data set [1], in data set [2], in data set [3], in [4], in [5] and in [6] was “Compound NOT metabolized” in each case. Further, the “Bacterial Biotransformation” value is reported as “Compound metabolized” in data set [7]; “Compound metabolized” in data set [8]; “Compound metabolized” in data set [9]; “Compound metabolized” in data set [10]; “Compound metabolized” in data set [11]; “Compound NOT metabolized” in data set [12]. Besides, the “Bacterial Biotransformation” value is given as “Compound NOT metabolized” in data set [13]; “Compound NOT metabolized” in data set [14]; “Compound metabolized” in data set [15]; “Compound NOT metabolized” in [16]; “Compound metabolized” in [17]; “Compound metabolized” in data set [18]. For the same molecule, the “Bacterial Biotransformation” value in data set [19] and in [20] was “Compound metabolized” in each case.

In the case of `CN1CCOC(c2ccccc2)c2ccccc2C1` (stereo not given) [NEFOPAM], the “Bacterial Biotransformation” value is “Compound NOT metabolized” in [1]; “Compound NOT metabolized” in data set [2]; “Compound NOT metabolized” in data set [3]; “Compound NOT metabolized” in [4]; “Compound NOT metabolized” in [5]; “Compound metabolized” in [6]. The “Bacterial Biotransformation” value in data set [7] is on record as “Compound metabolized”; in data set [8], “Compound NOT metabolized”; in data set [9] it was “Compound NOT metabolized”; in data set [10], “Compound metabolized”; in [11] it was “Compound metabolized”; in data set [12] it was “Compound NOT metabolized”. Besides, the “Bacterial Biotransformation” value is “Compound metabolized” in [13]; “Compound NOT metabolized” in data set [14]; “Compound NOT metabolized” in [15]; “Compound NOT metabolized” in data set [16]; “Compound metabolized” in [17]; “Compound NOT metabolized” in data set [18]. Further, the “Bacterial Biotransformation” value is “Compound NOT metabolized” in data set [19] and “Compound metabolized” in data set [20].

In the case of `Cc1ccnc2c1NC(=O)c1cccnc1N2C1CC1` [NEVIRAPINE], the “Bacterial Biotransformation” value in [1] is on record as “Compound NOT metabolized”; in data set [2], “Compound NOT metabolized”; in data set [3], “Compound NOT metabolized”; in [4] it was “Compound NOT metabolized”; in [5], “Compound NOT metabolized”; in [6], “Compound metabolized”. The “Bacterial Biotransformation” value in data set [7] is “Compound metabolized”; in data set [8], “Compound NOT metabolized”; in data set [9], “Compound NOT metabolized”; in data set [10] it was “Compound NOT metabolized”; in [11], “Compound NOT metabolized”; in [12], “Compound NOT metabolized”. Also, the “Bacterial Biotransformation” value is recorded as “Compound NOT metabolized” in data set [13]; “Compound metabolized” in data set [14]; “Compound metabolized” in data set [15]; “Compound NOT metabolized” in data set [16]; “Compound metabolized” in data set [17]; “Compound NOT metabolized” in data set [18]. For the same molecule, the “Bacterial Biotransformation” value in [19] is reported as “Compound NOT metabolized”; in [20] it was “Compound metabolized”.

With `CO[C@]12C[C@@H](COC(=O)c3cncc(Br)c3)CN(C)[C@@H]1Cc1cn(C)c3cccc2c13` [NICERGOLINE], the “Bacterial Biotransformation” value in data set [1] was “Compound NOT metabolized”; in data set [2] it was “Compound metabolized”; in data set [3] it was “Compound metabolized”; in [4], “Compound metabolized”; in [5], “Compound metabolized”; in data set [6], “Compound NOT metabolized”. For the same molecule, the “Bacterial Biotransformation” value in [7] is given as “Compound metabolized”; in [8] it was “Compound metabolized”; in data set [9], “Compound NOT metabolized”; in data set [10], “Compound metabolized”; in data set [11], “Compound metabolized”; in [12] it was “Compound metabolized”. In addition, the “Bacterial Biotransformation” value in data set [13], in [14], in data set [15], in data set [16], in data set [17] and in data set [18] was “Compound NOT metabolized” throughout. Moreover, the “Bacterial Biotransformation” value in data set [19] and in data set [20] was “Compound NOT metabolized” each time.

On to `COc1ccc2c(c1OC)C(=O)O[C@@H]2[C@H]1c2c(cc3c(c2OC)OCO3)CCN1C` [NOSCAPINE], for which the “Bacterial Biotransformation” value is “Compound NOT metabolized” in data set [1]; “Compound metabolized” in data set [2]; “Compound metabolized” in [3]; “Compound metabolized” in [4]; “Compound metabolized” in data set [5]; “Compound metabolized” in data set [6]. For the same molecule, the “Bacterial Biotransformation” value is listed as “Compound metabolized” in data set [7]; “Compound NOT metabolized” in [8]; “Compound NOT metabolized” in data set [9]; “Compound NOT metabolized” in data set [10]; “Compound NOT metabolized” in [11]; “Compound NOT metabolized” in data set [12]. Also, the “Bacterial Biotransformation” value in data set [13] was “Compound NOT metabolized”; in [14] it was “Compound NOT metabolized”; in [15] it was “Compound metabolized”; in data set [16], “Compound NOT metabolized”; in data set [17], “Compound NOT metabolized”; in data set [18], “Compound NOT metabolized”. The “Bacterial Biotransformation” value in data set [19] and in data set [20] was “Compound NOT metabolized” in each case.
